{"source": "paper PMC9405216", "about": "“Antimicrobial and Cytotoxic Cyathane-Xylosides from Cultures of the Basidiomycete Dentipellis fragilis” (Antibiotics, 2022)", "type_in_all_cases": "cell-based", "key": {"[1]": {"tested_on": "Schizosaccharomyces pombe (DSM 70572)", "experiment": "Serial dilution MIC assay, Schizosaccharomyces pombe", "settings": "serial dilution 67-0.5 µg/mL, overnight incubation, n.i. = no inhibition", "procedure": "(§1) Serial dilution assays in 96-well microtiter plates were performed according to our standard protocol in order to determine the minimum inhibitory concentrations (MICs) of pure isolated compounds against different microorganisms. Essentially, aliquots of compounds 1–5 and 9 (20 µL), each with an initial concentration of 1 mg/mL, were diluted in MeOH together with the respective microorganisms to concentrations ranging between 67 µg/mL and 0.5 µg/mL in the 96-well plates, followed by overnight incubation. The MIC was then determined as the lowest concentration at which no growth of the test organism was observed. A broad spectrum of clinically approved test pathogens and sensitivity indicator strains were used in the assays (Table 4 and Table 5). Ciprofloxacin, oxytetracycline, kanamycin, and gentamycin were used as positive controls against bacterial pathogens, while nystatin was used as the positive control against fungi."}, "[2]": {"tested_on": "Candida albicans (DSM 1665)", "experiment": "Serial dilution MIC assay, Candida albicans", "settings": "serial dilution 67-0.5 µg/mL, overnight incubation, n.i. = no inhibition", "procedure": "as §1"}, "[3]": {"tested_on": "KB3.1 (ACC158) human endocervical adenocarcinoma", "experiment": "MTT cytotoxicity test, KB3.1", "settings": "KB3.1 human endocervical adenocarcinoma, five days incubation, n.c. = no cytotoxicity", "description": "(§2) A panel of mammalian cell lines was used to determine the cytotoxicity of the compounds following a previously published protocol. The assay was initially performed using the sensitive cell lines KB3.1 (human endocervical adenocarcinoma) and L929 (mouse fibroblasts). Active compounds were further tested using the cell lines MCF-7 (human breast adenocarcinoma), PC-3 (human prostate adenocarcinoma), SKOV-3 (ovarian carcinoma), A549 (human lung carcinoma), and A431 (human squamous cell carcinomas) (Table 6). The cell lines A549, KB 3.1, and L929 were cultured in DMEM (Gibco, provided by Thermo Fisher Scientific), PC-3 in F12-K (Gibco) and MC-7, and SKOV-3 and A431 in RPMI (Gibco). With the exception of A549, all cell lines were supplemented with 10% bovine serum (Gibco). All cell lines were cultured at 37 °C. The L929 and KB 3.1 cell lines were cultivated under an atmosphere of 10% (v/v) carbon dioxide. Cytotoxicity tests were then carried out using MTT (3-(4,5-dimethylthiazol-2-yl)-2,5-diphenyltetrazolium bromide) in 96-well microtiter plates. Serial dilutions of the compounds (60 µL aliquots, each with an initial concentration of 1 mg/mL) were added into 120 µL aliquots of cell suspension (50000 cells/mL) in the 96-well plates. These were incubated for five days, after which an MTT assay was performed. The absorbance was taken at 590 nm using an Elisa plate reader (Victor, Überlingen, Germany). The half-maximal inhibitory concentration (IC50), the concentration at which cell growth inhibition was 50% of the control, was calculated as described elsewhere."}, "[4]": {"tested_on": "Mucor hiemalis (DSM 2656)", "experiment": "Serial dilution MIC assay, Mucor hiemalis", "settings": "overnight incubation, n.i. = no inhibition", "procedure": "as §1"}, "[5]": {"tested_on": "Escherichia coli (DSM 1116)", "experiment": "Serial dilution MIC assay, Escherichia coli", "settings": "overnight incubation, n.i. = no inhibition", "procedure": "as §1"}, "[6]": {"tested_on": "Staphylococcus aureus (DSM 346)", "experiment": "Serial dilution MIC assay, Staphylococcus aureus", "settings": "DSM346, serial dilution 67-0.5 µg/mL, overnight incubation, n.i. = no inhibition, read-out: MIC", "procedure": "as §1"}, "[7]": {"tested_on": "Actinobacter baumannii (DSM 30008)", "experiment": "Serial dilution MIC assay, Actinobacter baumannii", "settings": "serial dilution 67-0.5 µg/mL, overnight incubation, n.i. = no inhibition", "procedure": "as §1"}, "[8]": {"tested_on": "L929 (ACC2) mouse fibroblasts", "experiment": "MTT cytotoxicity test, L929", "settings": "five days incubation, n.c. = no cytotoxicity", "description": "as §2"}, "[9]": {"tested_on": "Pseudomonas aeruginosa (DSM PA14)", "experiment": "Serial dilution MIC assay, Pseudomonas aeruginosa", "settings": "serial dilution 67-0.5 µg/mL, overnight incubation, n.i. = no inhibition", "procedure": "as §1"}, "[10]": {"tested_on": "Bacillus subtilis (DSM 10)", "experiment": "Serial dilution MIC assay, Bacillus subtilis", "settings": "DSM10, serial dilution 67-0.5 µg/mL, overnight incubation, n.i. = no inhibition, read-out: MIC", "procedure": "as §1"}, "[11]": {"tested_on": "Pichia anomala (DSM 6766)", "experiment": "Serial dilution MIC assay, Pichia anomala", "settings": "serial dilution 67-0.5 µg/mL, overnight incubation, n.i. = no inhibition", "procedure": "as §1"}, "[12]": {"tested_on": "Rhodotorula glutinis (DSM 10134)", "experiment": "Serial dilution MIC assay, Rhodotorula glutinis", "settings": "overnight incubation, n.i. = no inhibition", "procedure": "as §1"}, "[13]": {"tested_on": "Chromobacterium violaceum (DSM 30191)", "experiment": "Serial dilution MIC assay, Chromobacterium violaceum", "settings": "overnight incubation, n.i. = no inhibition", "procedure": "as §1"}, "[14]": {"tested_on": "Mycolicibacterium smegmatis (ATCC 700084)", "experiment": "Serial dilution MIC assay, Mycolicibacterium smegmatis", "settings": "serial dilution 67-0.5 µg/mL, overnight incubation, n.i. = no inhibition", "procedure": "as §1"}, "[15]": {"tested_on": "PC-3 (ACC465) human prostate adenocarcinoma", "experiment": "MTT cytotoxicity test, PC-3", "settings": "PC-3 human prostate adenocarcinoma, five days incubation", "description": "as §2"}, "[16]": {"tested_on": "A431 (ACC91) human squamous cell carcinomas", "experiment": "MTT cytotoxicity test, A431", "settings": "five days incubation", "description": "as §2"}, "[17]": {"tested_on": "SKOV-3 (ovarian carcinoma)", "experiment": "MTT cytotoxicity test, SKOV-3", "settings": "five days incubation", "description": "as §2"}, "[18]": {"tested_on": "MCF-7 (A115) human breast adenocarcinoma", "experiment": "MTT cytotoxicity test, MCF-7", "settings": "MCF-7 human breast adenocarcinoma, five days incubation", "description": "as §2"}, "[19]": {"tested_on": "A549 (ACC107) human lung carcinoma", "experiment": "MTT cytotoxicity test, A549", "settings": "five days incubation", "description": "as §2"}}, "note": "Like-named read-outs stand apart in the source and are kept apart here. Marks after values point to notes of the source that are not given here.", "data": [{"molecule": "CC(C)C1=C2[C@H]3CC[C@H](CO)[C@@H]4[C@H](O[C@@H]5OC[C@@H](O)[C@H](O)[C@@]54O)[C@]3(C)CC[C@@]2(C)CC1=O", "note": "[Compound 4, dentifragilin D]", "values": [{"measurement": "MIC", "setting": "[1]", "result": "n.i."}, {"measurement": "MIC", "setting": "[2]", "result": "n.i."}, {"measurement": "IC50", "setting": "[3]; KB 3-1, 120 h, read-out: IC50", "result": 42200, "unit": "nM"}, {"measurement": "IC50", "setting": "[3]", "result": "weak activities"}, {"measurement": "MIC", "setting": "[4]; DSM2656, serial dilution 67-0.5 µg/mL, read-out: MIC", "result": 66.6, "unit": "µg/mL"}, {"measurement": "MIC", "setting": "[5]; serial dilution 67-0.5 µg/mL", "result": "n.i."}, {"measurement": "MIC", "setting": "[6]", "result": 33.3, "unit": "µg/mL"}, {"measurement": "MIC", "setting": "[7]", "result": "n.i."}, {"measurement": "IC50", "setting": "[8]; 120 h, read-out: IC50", "result": 48900, "unit": "nM"}, {"measurement": "IC50", "setting": "[8]", "result": "weak activities"}, {"measurement": "MIC", "setting": "[9]", "result": "n.i."}, {"measurement": "MIC", "setting": "[10]", "result": 16.7, "unit": "µg/mL"}, {"measurement": "MIC", "setting": "[11]", "result": "n.i."}, {"measurement": "MIC", "setting": "[12]; DSM10134, serial dilution 67-0.5 µg/mL, read-out: MIC", "result": 66.6, "unit": "µg/mL"}, {"measurement": "MIC", "setting": "[13]; serial dilution 67-0.5 µg/mL", "result": "n.i."}, {"measurement": "MIC", "setting": "[14]", "result": "n.i."}]}, {"molecule": "CN(C)[C@@H]1C(O)=C(C(N)=O)C(=O)[C@@]2(O)C(O)=C3C(=O)c4c(O)cccc4[C@@](C)(O)[C@H]3[C@H](O)[C@@H]12", "note": "[oxytetracycline, reference compound]", "values": [{"measurement": "MIC", "setting": "[5]; DSM1116, serial dilution 67-0.5 µg/mL, read-out: MIC", "result": 3.3, "unit": "µg/mL"}, {"measurement": "MIC", "setting": "[6]", "result": 0.2, "unit": "µg/mL"}, {"measurement": "MIC", "setting": "[10]", "result": 4.2, "unit": "µg/mL"}, {"measurement": "MIC", "setting": "[13]; DSM30191, serial dilution 67-0.5 µg/mL, read-out: MIC", "result": 0.8, "unit": "µg/mL"}]}, {"molecule": "CO[C@H]1O[C@H]2[C@H](O)CO[C@H]3O[C@H]4[C@@H](C1=CC[C@@H]1C5=C(C(C)C)CC[C@]5(C)CC[C@]14C)[C@]32O", "note": "[Compound 8, dentifragilin H]", "values": [{"measurement": "IC50", "setting": "[3]; KB 3-1, 120 h, read-out: IC50", "result": 2000, "unit": "nM"}, {"measurement": "IC50", "setting": "[8]; 120 h, read-out: IC50", "result": 10000, "unit": "nM"}]}, {"molecule": "CC(C)C1=C2[C@H]3CC=C4[C@@H]5O[C@@H]6[C@@]7(O)[C@@H](OC[C@]6(O)O5)O[C@@H]([C@@H]47)[C@]3(C)CC[C@@]2(C)CC1=O", "note": "[Compound 2, dentifragilin B]", "values": [{"measurement": "MIC", "setting": "[1]", "result": "n.i."}, {"measurement": "MIC", "setting": "[2]", "result": "n.i."}, {"measurement": "IC50", "setting": "[3]; KB 3-1, 120 h, read-out: IC50", "result": 51000, "unit": "nM"}, {"measurement": "MIC", "setting": "[4]; serial dilution 67-0.5 µg/mL", "result": "n.i."}, {"measurement": "MIC", "setting": "[5]; serial dilution 67-0.5 µg/mL", "result": "n.i."}, {"measurement": "MIC", "setting": "[6]", "result": 66.6, "unit": "µg/mL"}, {"measurement": "MIC", "setting": "[7]", "result": "n.i."}, {"measurement": "IC50", "setting": "[8]", "result": "no activity"}, {"measurement": "MIC", "setting": "[9]", "result": "n.i."}, {"measurement": "MIC", "setting": "[10]", "result": 66.6, "unit": "µg/mL"}, {"measurement": "MIC", "setting": "[11]", "result": "n.i."}, {"measurement": "MIC", "setting": "[12]; serial dilution 67-0.5 µg/mL", "result": "n.i."}, {"measurement": "MIC", "setting": "[13]; serial dilution 67-0.5 µg/mL", "result": "n.i."}, {"measurement": "MIC", "setting": "[14]", "result": "n.i."}]}, {"molecule": "CO[C@H]1O[C@@]2(O)[C@H](O)CO[C@H]3O[C@H]4[C@@H]([C@@H]1CC[C@@H]1C5=C(C(C)C)CC[C@]5(C)CC[C@]14C)[C@]32O", "note": "[Compound 7, dentifragilin G]", "values": [{"measurement": "IC50", "setting": "[3]; KB 3-1, 120 h, read-out: IC50", "result": 10300, "unit": "nM"}, {"measurement": "IC50", "setting": "[3]", "result": "weak activities"}, {"measurement": "IC50", "setting": "[8]; 120 h, read-out: IC50", "result": 14900, "unit": "nM"}, {"measurement": "IC50", "setting": "[8]", "result": "weak activities"}]}, {"molecule": "gentamycin [reference compound]", "values": [{"measurement": "MIC", "setting": "[9]", "result": "0.4 ^d µg/mL"}]}, {"molecule": "C/C(=C\\c1csc(C)n1)[C@@H]1C[C@@H]2O[C@]2(C)CCC[C@H](C)[C@H](O)[C@@H](C)C(=O)C(C)(C)[C@@H](O)CC(=O)O1", "note": "[epothilon B, reference compound]", "values": [{"measurement": "IC50", "setting": "[3]; read-out: IC50", "result": 0.033, "unit": "nM"}, {"measurement": "IC50", "setting": "[15]", "result": 0.15, "unit": "nM"}, {"measurement": "IC50", "setting": "[16]", "result": 0.067, "unit": "nM"}, {"measurement": "IC50", "setting": "[8]; read-out: IC50", "result": 0.047, "unit": "nM"}, {"measurement": "IC50", "setting": "[17]", "result": 0.051, "unit": "nM"}, {"measurement": "IC50", "setting": "[18]", "result": 0.03, "unit": "nM"}, {"measurement": "IC50", "setting": "[19]", "result": 0.095, "unit": "nM"}]}]}
